Data set [1] deals with T1, MC1 receptor (B16/F1 murine melanoma cells) (Mus musculus, UniProt Q01727).
T1 construct: host or cells: B16/F1 murine melanoma cells
The data set can be described thus: In vitro competitive binding assay in B16/F1 cells (125I-Tyr2-NDP-MSH displacement). Particulars: 25° C., 2 h. How it is done: In vitro Competitive Binding Assay: The IC50 values of DOTA-CycMSH and DOTA-GlyGlu-CycMSH were determined by using methods described previously (8). B16/F1 cells were harvested and seeded into a 24-well cell culture plate (5×10^5/well) and incubated at 37° C. overnight. After being washed once with binding media (MEM with 25 mM HEPES, pH 7.4, 0.2% BSA, 0.3 mM 1,10-phenathroline), the cells were incubated at room temperature (25° C.) for 2 h with approximately 50,000 cpm of ^125I-Tyr^2-[Nle^4, D-Phe^7]-α-MSH {NDP-MSH} (GE HealthCare, Piscataway, N.J.) in presence of increasing concentrations of DOTA-CycMSH or DOTA-GlyGlu-CycMSH in 0.3 ml of binding media. The reaction media were aspirated after incubation. Cells were rinsed with 0.5 ml of ice-cold pH 7.4, 0.2% BSA/0.01 M PBS twice and lysed in 0.5 ml of 1 N NaOH for 5 minutes. The activities in cells were measured in a gamma counter. The IC50 values for the peptides were calculated by using the Grafit software (Erithacus Software Limited, UK).
In vitro Competitive Binding Assay: The IC50 values of DOTA-GluGlu-CycMSH and Ac-GluGlu-CycMSH[DOTA] were determined by using methods described previously (12). B16/F1 cells were harvested and seeded into a 24-well cell culture plate (5×10^5/well) and incubated at 37° C. overnight. After being washed once with binding media (MEM with 25 mM HEPES, pH 7.4, 0.2% BSA, 0.3 mM 1,10-phenathroline), the cells were incubated at 25° C. for 2 h with approximately 50,000 cpm of ^125I-(Tyr^2)-NDP-MSH in the presence of increasing concentrations (10^−13 to 10^−6 M) of DOTA-GluGlu-CycMSH or Ac-GluGlu-CycMSH[DOTA] in 0.3 ml of binding media. The reaction media were aspirated after incubation. Cells were rinsed with 0.5 ml of ice-cold pH 7.4; 0.2% BSA/0.01 M PBS twice and lysed in 0.5 ml of 1 N NaOH for 5 min. The activities associated with cells were measured in a Wallac 1480 automated gamma counter (PerkinElmer, N.J.). The IC50 values of the peptides were calculated by using Prism software (GraphPad Software, La Jolla, Calif.).

In data set [2] the test system is endocytosis in tubular cells. The following applies: rat model, literature (27); cited from earlier work.
The nature of data set [3]: Stability in mouse serum monitored by RP-HPLC. It is filed as in vitro ADME. The following applies: 37° C., 24 h incubation. On the procedure:
Complexation of the Peptide with ^111In: ^111In-DOTA-CycMSH and ^111In-DOTA-GlyGlu-CycMSH were prepared using a 0.5 M NH4OAc-buffered solution at pH 5.4. Briefly, 50 μl of ^111InCl3 (18.5-37.0 MBq in 0.05 M HCl), 10 μl of 1 mg/ml DOTA-CycMSH or DOTA-GlyGlu-CycMSH aqueous solution and 400 μl of 0.5 M NH4OAc (pH 5.4) were added into a reaction vial and incubated at 75° C. for 45 min. After the incubation, 20 μl of 0.5% EDTA aqueous solution was added into the reaction vial to scavenge potential unbound ^111In. The radiolabeled complexes were purified to single species by Waters RP-HPLC (Milford, Mass.) on a Grace Vadyc C-18 reverse phase analytical column (Deerfield, Ill.) using a 20-minute gradient of 16-26% acetonitrile in 20 mM HCl aqueous solution with a flowrate of 1 ml/min. Purified peptide samples were purged with N2 gas for 20 minutes to remove the acetonitrile. The pH of final solution was adjusted to 7.4 with 0.1 N NaOH and normal saline for animal studies. The stability of ^111In-DOTA-CycMSH and ^111In-DOTA-GlyGlu-CycMSH was determined by incubation in mouse serum at 37° C. according to the published procedure (20) for various time periods, and monitored for degradation by RP-HPLC.

A short description of data set [4]: Biodistribution in B16/F1 murine melanoma-bearing C57 mice. The following applies: female, C57, mouse, iv, 0.037 MBq, total radioactivity; for tissue uptake: all time points (2, 4, 24 h). It is filed as in vivo, mouse. How it is done: (§1) Biodistribution Studies: All the animal studies were conducted in compliance with Institutional Animal Care and Use Committee approval. The pharmacokinetics of ^111In-DOTA-CycMSH and ^111In-DOTA-GlyGlu-CycMSH were determined in B16/F1 murine melanoma-bearing C57 female mice (Harlan, Indianapolis, Ind.). C57 mice were inoculated subcutaneously with 1×10^6 B16/F1 murine melanoma cells in the right flank. After 10 days, when the weight of tumors reached approximately 0.2 g, 0.037 MBq of ^111In-DOTA-CycMSH or ^111In-DOTA-GlyGlu-CycMSH was injected into each mouse through the tail vein. Groups of 5 mice were sacrificed at 2, 4 and 24 h post-injection, and tumors and organs of interest were harvested, weighed and counted. Blood values were taken as 6.5% of the whole-body weight. The tumor uptake specificity of ^111In-DOTA-CycMSH and ^111In-DOTA-GlyGlu-CycMSH was determined by blocking tumor uptake with the co-injection of 10 μg (6.07 nmol) of unlabeled NDP-MSH, a linear α-MSH peptide analogue with picomolar affinity for the MC1 receptors present on murine melanoma cells. Statistical analysis was performed using the Student's t-test for unpaired data.

The test system of data set [5] is B16/F1 murine melanoma-bearing C57 mice. The description is as above. Type of data set: in vivo, mouse. How it is done: as §1
Data set [6] can be described thus: Urinary metabolites by HPLC in B16/F1 melanoma-bearing C57 mice. It is filed as in vivo, mouse. The following applies: urine, 2 h post-injection. How it is done: Urinary Metabolites of ^111In-DOTA-CycMSH and ^111In-DOTA-GlyGlu-CycMSH: One hundred microliter of HPLC purified ^111In-DOTA-CycMSH (0.74-1.11 MBq, 0.82-1.12 ng) or ^111In-DOTA-GlyGlu-CycMSH (0.74-1.11 MBq, 0.90-1.35 ng) was injected into each B16/F1 murine melanoma-bearing C57 mouse through the tail vein. At 2 h after dose administration, mice were sacrificed and the urine was collected. The radioactive metabolites in the urine were analyzed by injecting aliquots of urine into HPLC. A 20-minute gradient of 16-26% acetonitrile/20 mM HCl was used for the urine analysis.

Data set [7] has as its target T2, MC1 receptor (B16/F10 murine melanoma cells) (Mus musculus, UniProt Q01727).
T2 construct: host or cells: B16/F10 murine melanoma cells
Nature of the data set: In vitro competitive binding assay in B16/F10 cells (125I-(Tyr2)-NDP-MSH displacement). Particulars: 25° C., 2 h, read-out: IC50 (MC1 receptor binding affinity). How it is done: In vitro Competitive Binding Assay: The IC50 value of DOTA-GlyGlu-CycMSH was determined in B16/F10 cells. The cells were harvested and seeded into a 24-well cell culture plate (5×10^5/well) and incubated at 37° C. overnight. After being washed once with binding media, the cells were incubated at 25° C. for 2 h with approximately 50,000 cpm of ^125I-(Tyr^2)-NDP-MSH in the presence of increasing concentrations of DOTA-GlyGlu-CycMSH (10^−12 to 10^−5 M) in 0.3 mL of binding media. The reaction media were aspirated after incubation. Cells were rinsed with 0.5 mL of ice-cold pH 7.4, 0.2% BSA/0.01 M PBS twice, and then lysed in 0.5 mL of 1 N NaOH for 5 min. The activities associated with the cells were measured in a gamma counter. The IC50 value was calculated by using Prism software.

SMILES strings stand for the structures. Where two headings read alike, the source gives them in different places. Residues, ends and D or L forms follow the SMILES beside them.

T1 sequence (Q01727 whole entry): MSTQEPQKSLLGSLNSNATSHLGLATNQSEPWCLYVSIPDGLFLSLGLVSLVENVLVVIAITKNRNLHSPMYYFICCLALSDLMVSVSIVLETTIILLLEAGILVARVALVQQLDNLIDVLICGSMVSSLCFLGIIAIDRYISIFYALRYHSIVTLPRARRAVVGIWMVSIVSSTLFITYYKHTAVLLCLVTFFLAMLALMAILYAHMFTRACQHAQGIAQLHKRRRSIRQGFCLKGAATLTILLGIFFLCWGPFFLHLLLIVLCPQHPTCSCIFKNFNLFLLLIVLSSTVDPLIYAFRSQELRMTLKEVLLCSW
T2 sequence (Q01727 whole entry): as above

As to `CCCC[C@@H]1NC(=O)[C@@H](NC(=O)[C@H](CCC(=O)O)NC(=O)[C@H](CCC(=O)O)NC(=O)CN2CCN(CC(=O)O)CCN(CC(=O)O)CCN(CC(=O)O)CC2)CCCCNC(=O)[C@H](CC(=O)O)NC(=O)[C@H](C(C)C)NC(=O)[C@@H]2CCCN2C(=O)[C@H](CCCNC(=N)N)NC(=O)CNC(=O)[C@H](Cc2c[nH]c3ccccc23)NC(=O)[C@H](CCCNC(=N)N)NC(=O)[C@@H](Cc2ccccc2)NC(=O)[C@H](Cc2c[nH]cn2)NC(=O)[C@H](CCC(=O)O)NC1=O` [DOTA-GluGlu-CycMSH, 1,4,7,10-tetraazacyclododecane-1,4,7,10-tetraacetic acid-Glu-Glu-c[Lys-Nle-Glu-His-DPhe-Arg-Trp-Gly-Arg-Pro-Val-Asp]] (HELM PEPTIDE1{[O=C(O)CN1CCN(CC(=O)O)CCN(CC(=O)[*:2])CCN(CC(=O)O)CC1].E.E.K.[Nle].E.H.[dF].R.W.G.R.P.V.D}$PEPTIDE1,PEPTIDE1,4:R3-15:R2$$$V2.0), the IC50 (commonly the concentration needed to halve the response being measured) in data set [1] was found to be 6.73 nM.

As for `COc1cc2c(c(OC)c1OC)-c1ccc(OC)c(=O)cc1[C@@H](NC(C)=O)CC2` [colchicine], the “decrease of the renal uptake of radiolabeled peptide” value in data set [2] is “up to 25%”.

Take `CCCC[C@@H]1NC(=O)[C@@H](NC(=O)CN2CCN(CC(=O)O)CCN(CC(=O)O)CCN(CC(=O)O)CC2)CCCCNC(=O)[C@H](CC(=O)O)NC(=O)[C@H](C(C)C)NC(=O)[C@@H]2CCCN2C(=O)[C@H](CCCNC(=N)N)NC(=O)CNC(=O)[C@H](Cc2c[nH]c3ccccc23)NC(=O)[C@H](CCCNC(=N)N)NC(=O)[C@@H](Cc2ccccc2)NC(=O)[C@H](Cc2c[nH]cn2)NC(=O)[C@H](CCC(=O)O)NC1=O` [^111In-DOTA-CycMSH, metal not drawn] (HELM PEPTIDE1{[O=C(O)CN1CCN(CC(=O)O)CCN(CC(=O)[*:2])CCN(CC(=O)O)CC1].K.[Nle].E.H.[dF].R.W.G.R.P.V.D}$PEPTIDE1,PEPTIDE1,2:R3-13:R2$$$V2.0): the “stability in mouse serum” value in data set [3] is “stable”. Moreover, the tissue uptake in data set [4] (bone, read-out: bone uptake) was below 0.2 %ID/g; in data set [4] (normal organs except the kidneys, read-out: normal organ uptakes except for the kidneys), below 0.8 %ID/g. The kidney uptake at 24 h in data set [4] (kidney, 24 h after dose administration) is 16 ± 2.3 %ID/g. The tissue uptake at 2 h in data set [4] (tumor, 2 h post-injection, tail vein) came out at 9.53 ± 1.41 %ID/g. Besides, the tissue uptake at 4 h in data set [4] (tumor, 4 h post-injection, tail vein) worked out at 7.54 ± 0.7 %ID/g. Further, the tissue uptake at 24 h in data set [4] (tumor, 24 h post-injection, tail vein) came out at 2.22 ± 0.51 %ID/g. Moreover, the dose excreted in data set [4] (urine, by 2 h post-injection, read-out: injected radioactivity cleared through the urinary system) was around 90%. The “tumor uptake with NDP co-injection as % of the tumor uptake without NDP co-injection” value in data set [5] (10 μg (6.07 nmol) non-radiolabeled NDP co-injection, 2 h after dose administration) was found to be 3.0%. The same compound came in with a tumor uptake in data set [5] (2 h post-injection, tail vein) of 9.53±1.41 % ID/g. The “urinary metabolites by RP-HPLC” value in data set [6] is recorded as “transformed to two more polar metabolites”.

In data set [1], `CCCC[C@@H]1NC(=O)[C@@H](NC(=O)CN2CCN(CC(=O)O)CCN(CC(=O)O)CCN(CC(=O)O)CC2)CCCCNC(=O)[C@H](CC(=O)O)NC(=O)[C@H](C(C)C)NC(=O)[C@@H]2CCCN2C(=O)[C@H](CCCNC(=N)N)NC(=O)CNC(=O)[C@H](Cc2c[nH]c3ccccc23)NC(=O)[C@H](CCCNC(=N)N)NC(=O)[C@@H](Cc2ccccc2)NC(=O)[C@H](Cc2c[nH]cn2)NC(=O)[C@H](CCC(=O)O)NC1=O` [DOTA-CycMSH] (HELM PEPTIDE1{[O=C(O)CN1CCN(CC(=O)O)CCN(CC(=O)[*:2])CCN(CC(=O)O)CC1].K.[Nle].E.H.[dF].R.W.G.R.P.V.D}$PEPTIDE1,PEPTIDE1,2:R3-13:R2$$$V2.0) returned an IC50 of 1.75 nM.

Take `CCCC[C@@H]1NC(=O)[C@@H](NC(=O)[C@H](CCC(=O)O)NC(=O)CNC(=O)CN2CCN(CC(=O)O)CCN(CC(=O)O)CCN(CC(=O)O)CC2)CCCCNC(=O)[C@H](CC(=O)O)NC(=O)[C@H](C(C)C)NC(=O)[C@@H]2CCCN2C(=O)[C@H](CCCNC(=N)N)NC(=O)CNC(=O)[C@H](Cc2c[nH]c3ccccc23)NC(=O)[C@H](CCCNC(=N)N)NC(=O)[C@@H](Cc2ccccc2)NC(=O)[C@H](Cc2c[nH]cn2)NC(=O)[C@H](CCC(=O)O)NC1=O` [DOTA-GlyGlu-CycMSH, DOTA-Gly-Glu-c[Lys-Nle-Glu-His-DPhe-Arg-Trp-Gly-Arg-Pro-Val-Asp]] (HELM PEPTIDE1{[O=C(O)CN1CCN(CC(=O)O)CCN(CC(=O)[*:2])CCN(CC(=O)O)CC1].G.E.K.[Nle].E.H.[dF].R.W.G.R.P.V.D}$PEPTIDE1,PEPTIDE1,4:R3-15:R2$$$V2.0): the IC50 amounted to 0.9 nM in data set [1] and 2.43 nM in data set [7].

Source of the values: patent US11160887B2, “Compositions for use in diagnosing and treating melanoma, including metastatic melanoma and methods related to same” (UNM RAINFOREST INNOVATIONS, priority 2008, dated 2021).
